Earlier results as cited in EP4810529A1, “1,1-DICYANOETHYLENE-CONTAINING COMPOSITION, CURED PRODUCT, LAMINATE, AND METHOD FOR PRODUCING 1,1-DICYANOETHYLENE-CONTAINING COMPOSITION” (Kuraray Co., Ltd., priority 2023, dated 2025).

Conditions: logarithmic acid dissociation constant, room temperature, aqueous system, first stage

For `O=[N+]([O-])O` [nitric acid], the pKa is given as -1.3.
